This experiment relates to cancer cells. In words: MTS cell growth inhibition assay (72 hours). The format is cell-based. How it is done:
Cells were maintained at 37° C., 5% CO2 in DMEM media supplemented with 1% fetal bovine serum, penicillin/streptomycin and fungizone (Invitrogen). Cells were seeded into 96-well tissue culture plates at 3000 per well and cultured at 37° C. for 18 hours. Test compounds were dissolved and diluted to 300× in DMSO then further diluted 1:40 in DMEM before addition to cells (1:7.5 dilution). Cells were incubated with test compounds for 72 hours followed by incubation with tetrazolium compound (3-(4,5-dimethylthiazol-2-yl)-5-(3-carboxymethoxyphenyl)-2-(4-sulfophenyl)-2H-tetrazolium, inner salt; MTS) and the electron coupling reagent, phenazine methosulfate (PMS) for 4 hours. […] The ability of compounds to inhibit cell growth in this assay is correlated with the reduction of dehydrogenase enzyme activity found in metabolically active cells. The measurement of the absorbance of the formazan was assessed using an ENVISION™ (Perkin Elmer) microplate reader at 492 nm. The calculated IC50 value is the concentration of the test compound that causes a 50% decrease in the absorbance. […] A=>79% inhibition, B=>50 to 79% inhibition, C=<50% inhibition.

Where [1] appears, read: Homo sapiens, DLD-1, 72 h, DLD-1 cells, read-out: DLD-1 MTS 72 hr at 10 μM.
Where [2] appears, read: Homo sapiens, KATO III, 72 h, KATO III cells, read-out: KATO III MTS 72 hr at 10 μM.
The mark [3] stands for this setting: Homo sapiens, MDA-MB-231, 72 h, MDA-MB-231 cells, read-out: MDA-MB-231 MTS 72 hr at 10 μM.
Where [4] appears, read: Homo sapiens, NCI-H1299, 72 h, NCI-H1299 cells, read-out: NCI-H1299 MTS 72 hr at 10 μM.
[5] abbreviates: PaCa-2, 72 h, PACA-2 cells, read-out: PACA-2 MTS 72 hr at 10 μM.

Like-named read-outs stand apart in the source and are kept apart here.

With `Nc1nc(NC2Cc3ccccc3N(S(=O)(=O)c3ccc(C(F)(F)F)cc3Cl)C2)c2cn[nH]c2n1` (stereo not drawn) [Compound 74, N4-(1-(2-chloro-4-(trifluoromethyl)phenylsulfonyl)-1,2,3,4-tetrahydroquinolin-3-yl)-1H-pyrazolo[3,4-d]pyrimidine-4,6-diamine], the inhibition at 10 µM was less than 50% under setting [1]; less than 50% under setting [2]; less than 50% under setting [3]; less than 50% under setting [4]; less than 50% under setting [5].

Turning to `Nc1nc(NC2Cc3ccccc3N(S(=O)(=O)c3ccc(-c4ccc(Cl)cc4)cc3)C2)c2cn[nH]c2n1` (stereo not drawn) [Compound 75, N4-(1-(4′-chlorobiphenyl-4-ylsulfonyl)-1,2,3,4-tetrahydroquinolin-3-yl)-1H-pyrazolo[3,4-d]pyrimidine-4,6-diamine], the inhibition at 10 µM was greater than 79% under setting [1]; greater than 79% under setting [2]; greater than 79% under setting [3]; 50 to 79% under setting [4]; greater than 79% under setting [5].

In the case of `Nc1nc(NC2Cc3ccccc3N(S(=O)(=O)c3ccc4c(c3)OCCO4)C2)c2cn[nH]c2n1` (stereo not drawn) [Compound 76, N4-(1-(2,3-dihydrobenzo[b][1,4]dioxin-6-ylsulfonyl)-1,2,3,4-tetrahydroquinolin-3-yl)-1H-pyrazolo[3,4-d]pyrimidine-4,6-diamine], the inhibition at 10 µM runs as follows: under setting [1], less than 50%; under setting [2], less than 50%; under setting [3], less than 50%; under setting [4], less than 50%; under setting [5], 50 to 79%.

Turning to `COc1ccccc1Oc1cccc(S(=O)(=O)N2CC(Nc3nc(N)nc4[nH]ncc34)Cc3ccccc32)c1` (stereo not drawn) [Compound 77, N4-(1-(3-(2-methoxyphenoxy)phenylsulfonyl)-1,2,3,4-tetrahydroquinolin-3-yl)-1H-pyrazolo[3,4-d]pyrimidine-4,6-diamine], the inhibition at 10 µM is less than 50% under setting [1]; 50 to 79% under setting [2]; less than 50% under setting [3]; less than 50% under setting [4]; less than 50% under setting [5].

Consider `Nc1nc(NC2Cc3ccccc3N(S(=O)(=O)c3cccc(Cl)c3F)C2)c2cn[nH]c2n1` (stereo not drawn) [Compound 78, N4-(1-(3-chloro-2-fluorophenylsulfonyl)-1,2,3,4-tetrahydroquinolin-3-yl)-1H-pyrazolo[3,4-d]pyrimidine-4,6-diamine], for which the inhibition at 10 µM is, setting by setting: under setting [1], less than 50%; under setting [2], less than 50%; under setting [3], less than 50%; under setting [4], less than 50%; under setting [5], less than 50%.

As to `Nc1nc(NC2Cc3ccccc3N(C(=O)c3cccs3)C2)c2cn[nH]c2n1` (stereo not drawn) [Compound 79, (3-(6-amino-1H-pyrazolo[3,4-d]pyrimidin-4-ylamino)-3,4-dihydroquinolin-1(2H)-yl)(thiophen-2-yl)methanone], the inhibition at 10 µM under setting [1] is greater than 79%; the inhibition at 10 µM under setting [2] was greater than 79%; the inhibition at 10 µM under setting [3] was 50 to 79%; the inhibition at 10 µM under setting [4] is less than 50%; the inhibition at 10 µM under setting [5] is greater than 79%.

For `Nc1nc(NC2Cc3ccccc3N(C(=O)C3CC3)C2)c2cn[nH]c2n1` (stereo not drawn) [Compound 80, (3-(6-amino-1H-pyrazolo[3,4-d]pyrimidin-4-ylamino)-3,4-dihydroquinolin-1(2H)-yl)(cyclopropyl)methanone], the inhibition at 10 µM under setting [1] was less than 50%; the inhibition at 10 µM under setting [2] is less than 50%; the inhibition at 10 µM under setting [3] is less than 50%; the inhibition at 10 µM under setting [4] was less than 50%; the inhibition at 10 µM under setting [5] is less than 50%.

For the molecule `Nc1nc(NC2Cc3ccccc3N(C(=O)c3ccccc3Br)C2)c2cn[nH]c2n1` (stereo not drawn) [Compound 81, (3-(6-amino-1H-pyrazolo[3,4-d]pyrimidin-4-ylamino)-3,4-dihydroquinolin-1(2H)-yl)(2-bromophenyl)methanone], the inhibition at 10 µM is, setting by setting: under setting [1], 50 to 79%; under setting [2], greater than 79%; under setting [3], greater than 79%; under setting [4], less than 50%; under setting [5], 50 to 79%.

Turning to `Cc1cccc(C(=O)N2CC(Nc3nc(N)nc4[nH]ncc34)Cc3ccccc32)c1` (stereo not drawn) [Compound 82, (3-(6-amino-1H-pyrazolo[3,4-d]pyrimidin-4-ylamino)-3,4-dihydroquinolin-1(2H)-yl)(m-tolyl)methanone], the inhibition at 10 µM runs as follows: under setting [1], less than 50%; under setting [2], less than 50%; under setting [3], less than 50%; under setting [4], less than 50%; under setting [5], less than 50%.

Turning to `Nc1nc(NC2Cc3ccccc3N(C(=O)C(=O)c3c[nH]c4ccccc34)C2)c2cn[nH]c2n1` (stereo not drawn) [Compound 83, 1-(3-(6-amino-1H-pyrazolo[3,4-d]pyrimidin-4-ylamino)-3,4-dihydroquinolin-1(2H)-yl)-2-(1H-indol-3-yl)ethane-1,2-dione], the inhibition at 10 µM reads like this: under setting [1], less than 50%; under setting [2], less than 50%; under setting [3], less than 50%; under setting [4], less than 50%; under setting [5], less than 50%.

In the case of `Nc1nc(NC2Cc3ccccc3N(C(=O)C3CCCCC3)C2)c2cn[nH]c2n1` (stereo not drawn) [Compound 84, (3-(6-amino-1H-pyrazolo[3,4-d]pyrimidin-4-ylamino)-3,4-dihydroquinolin-1(2H)-yl)(cyclohexyl)methanone], the inhibition at 10 µM is, setting by setting: under setting [1], less than 50%; under setting [2], less than 50%; under setting [3], less than 50%; under setting [4], less than 50%; under setting [5], less than 50%.

As to `Nc1nc(NC2Cc3ccccc3N(C(=O)COc3ccccc3)C2)c2cn[nH]c2n1` (stereo not drawn) [Compound 85, 1-(3-(6-amino-1H-pyrazolo[3,4-d]pyrimidin-4-ylamino)-3,4-dihydroquinolin-1(2H)-yl)-2-phenoxyethanone], the inhibition at 10 µM is less than 50% under setting [1]; less than 50% under setting [2]; less than 50% under setting [3]; less than 50% under setting [4]; less than 50% under setting [5].

Regarding `Nc1nc(NC2Cc3ccccc3N(C(=O)c3ccc(F)cc3F)C2)c2cn[nH]c2n1` (stereo not drawn) [Compound 86, (3-(6-amino-1H-pyrazolo[3,4-d]pyrimidin-4-ylamino)-3,4-dihydroquinolin-1(2H)-yl)(2,4-difluorophenyl)methanone], the inhibition at 10 µM is, setting by setting: under setting [1], less than 50%; under setting [2], less than 50%; under setting [3], less than 50%; under setting [4], less than 50%; under setting [5], less than 50%.

Regarding `Nc1nc(NC2Cc3ccccc3N(C(=O)Cc3ccccc3)C2)c2cn[nH]c2n1` (stereo not drawn) [Compound 87, 1-(3-(6-amino-1H-pyrazolo[3,4-d]pyrimidin-4-ylamino)-3,4-dihydroquinolin-1(2H)-yl)-2-phenylethanone], the inhibition at 10 µM by setting is: under setting [1], less than 50%; under setting [2], less than 50%; under setting [3], less than 50%; under setting [4], less than 50%; under setting [5], less than 50%.

On to `CCCCCCc1ccc(C(=O)N2CC(Nc3nc(N)nc4[nH]ncc34)Cc3ccccc32)cc1` (stereo not drawn) [Compound 88, (3-(6-amino-1H-pyrazolo[3,4-d]pyrimidin-4-ylamino)-3,4-dihydroquinolin-1(2H)-yl)(4-hexylphenyl)methanone], for which the inhibition at 10 µM under setting [1] fell in the range of 50 to 79%; the inhibition at 10 µM under setting [2] was less than 50%; the inhibition at 10 µM under setting [3] was less than 50%; the inhibition at 10 µM under setting [4] is less than 50%; the inhibition at 10 µM under setting [5] is less than 50%.

For the origin of these results see patent publication US8273754B2, “Substituted 1H-pyrazolo[3,4-D]pyrimidine-6-amine compounds” (ArQule, Inc., priority 2008, dated 2012).
